Experimental data reported in patent US20260193293A1, “PEPTIDES CAPABLE OF INHIBITING PROTEIN-PROTEIN INTERACTIONS AT GABAB1A SUBUNIT AND USES THEREOF” (UNIVERSITY OF COPENHAGEN, priority 2022, published 2026).
Where two headings read alike, the source gives them in different places. Non-standard residues stand in square brackets, D forms with d. Residues, ends and D or L forms follow the SMILES beside them. 2Nal = N[C@@H](Cc1ccc2ccccc2c1)C(=O)O

Assays:
[1] = molecular target: T1, GB1a subunit (Mus musculus, UniProt Q9WV18); test: Pull-down from mouse brain membrane fraction, immunoblotting; format: binding; conditions: immobilized peptides, whole-brain lysate
T1 construct: using the homogenized membrane fraction of wild type mouse brains; from tissue; host or cells: adult mouse brain, solubilized membrane-enriched fraction
Experimental: Covalent immobilization of peptides. Peptides AJAP-1WT, 17 and 20 comprising a C-terminal Cys and a PEG2 linker, were loaded covalently to Dynabeads M-270 Epoxy beads (Thermo Fischer Scientific) according to the protocol of the manufacturer. 25 μL DMSO stocks of peptides (10 mM) were diluted 15 times into 350 μL coupling buffer (100 mM PBS buffer containing 2 M […] and 10 mM TCEP, PH=7.4) and agitated overnight at 37° C. with Dynabeads M-270 Epoxy beads (5 mg, ~3.3×10^8 beads), which had been washed and equilibrated with coupling buffer before. After removing excess peptides, the Dynabeads M-270 Epoxy beads were washed three times and equilibrated with 100 mM PBS buffer, pH=7.4 and stored at 4° C.
Preparation of whole-brain lysates. Dissected adult mouse brains were placed in ice-cold homogenization buffer (320 mM sucrose, 4 mM HEPES, PH 7.5, 1 mM EDTA, 1 mM EGTA, supplemented with complete EDTA-free protease inhibitor mixture (Roche), 1 mL per 100 mg of brain) and homogenized with a glass-Teflon homogenizer (40 passes) on ice. The homogenized material was cleared by centrifugation at 500×g (4° C., 15 min). […]

[2] = molecular target: Sushi domains (SD1/2) protein; test: Fluorescence polarization (FP) competition assay with AJAP-1probe, calculated Ki; format: binding
Summary of the method: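 Ki values were derived from IC50s (sigmoidal fits, ≥ triplicate), with probe Kd obtained by saturation titration of SD1/2. Peptides displaced a 25 nM TAMRA-labelled probe; polarization read at 530/580 nm in 1% BSA-containing PBS, pH 7.4, room temperature.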

[3] = molecular target: T2, GB1a/2 receptors in presence of AJAP-1 in trans (Homo sapiens, UniProt Q9UBS5); test: SRE-Luciferase accumulation assay; format: cell-based; conditions: 10 μM peptide; for basal activity of GB1a/2Rs: in presence of AJAP-1 in trans
T2 construct: Flag; expressed in transfected cells; host or cells: HEK293T cells stably expressing chimeric Gαq/i
Text: (§1) To elucidate whether our developed peptides AJAP-1WT, 16 and 20 could interact and disrupt the trans-interaction between AJAP-1 and GB1a/2Rs, we used an established accumulation assay based on coupling GB1a/2Rs to phospholipase C (PLC) via chimeric Gαqi (Conklin et al. 1993). PLC activity is then monitored with a serum responsive element-luciferase (SRE-Luciferase) reporter amplifying the GB1a/2Rs response (Yoo et al. 2017) (FIG. 5).
(§2) HEK293T cells stably expressing Gαq/i were transiently transfected with Flag-GB1a, Flag-GB2 and SRE-FLuc with or without AJAP-1. In order to ensure GB1a/2 binding of AJAP-1 in trans, a pool of HEK293T-Gαq/i cells expressing AJAP-1 was mixed with HEK293-Gαq/i cells expressing Flag-GB1a, Flag-GB2 and SRE-FLuc. Transfected cells were distributed into 96-well microplates (Greiner Bio-One) at a density of 80,000 cells/well. After 24 h, the culture medium was replaced with Opti-MEM™-GlutaMAX™ Peptides were incubated in Opti-MEM™-GlutaMAX™ for 10 minutes. In presence of peptide, GB1a/2 receptors were activated with various concentrations of GABA for 6 h. FLuc activity in lysed cells was measured using the Luciferase® Assay Kit (Promega) and a Spark® microplate reader. Luminescence signals were adjusted by subtracting the luminescence obtained when expressing SRE-FLuc fusion proteins alone.

[4] = molecular target: T3, GB1a/2 receptors (Homo sapiens, UniProt Q9UBS5); test: SRE-Luciferase accumulation assay; format: cell-based; conditions: in the absence of AJAP-1
T3 construct: Flag; expressed in transfected cells; host or cells: HEK293T cells stably expressing chimeric Gαq/i
Text: as §1, §2

[5] = human, plasma
Experimental: (§3) For time-course assay, 360 μL human plasma was pre-warmed up at 37° C. for 15 min and then spiked with 40 μL of tested peptides (1 mM in 1×PBS). […] Subsequently, 100 μL acetonitrile was added into and then samples were incubated overnight at −20° C. After that, all samples were centrifuged at 13,400 rpm for 10 min and the supernatant was filtered and then analyzed by LC-MS and UPLC (Waters). The area under the curve (AUC) was determined and normalized to the value of the first time point. The half-life (T1/2) was obtained by fitting the data to the one-phase decay equation in GraphPad Prism 9 and expressed as the mean of three individual experiments. For end-point assay, 108 μL human plasma was pre-warmed up at 37° C. for 15 min and then spiked with 12 μL of tested peptides (1 mM in 1×PBS).

[6] = molecular target: SD1/2; test: Solution array of crude APPWT variants, six-point FP inhibition curve; format: binding; conditions: crude peptides of the solution array
Experimental: Parallel synthesis in 96 format peptide synthesis was done using Intavis multipep RSi instrument. Fmoc-PAL resins was used (10 mg per well). Fmoc-amino acids (Fmoc-AA) were dissolved in dimethylformamide (DMF) containing 0.3 M OxymaPure. Throughout the synthesis Fmoc-AA were preactivated with diisopropylcarbodiimide (DIC) for 2 min before adding to the resin. Three couplings using 100 μL Fmoc-AA and 10 μL DIC (3 M in DMF) pr well were employed with coupling times of 5, 15 and 60 min. Removal of Fmoc was performed by washing twice with 120 μl per well of 25% piperidine in DMF for 2 and 8 min. Washing steps after deprotection with piperidine and after coupling steps included washing with DMF (150 μL per well) five times. After synthesis the resins were dried with ethanol and trifluoroacetic acid (TFA) was added using 92% TFA containing 4% triisopropylsilane (TIPS), 1% thioanisol, and 3% H2O for 2 hours. This was done by adding 100 μL per well of the TFA cleavage cocktail over a period of 30 min adding up to a total volume of 1 mL to each well. TFA was then reduced in volume to approximately 100-150 μL by N2 flow and peptides were precipitated by the addition 800 μL of diethylether to each well. The peptides were transferred to Waters solvinert plates and washed thoroughly five times with diethylether 500 μL per well. After washing, the peptides were dried and then dissolved in 80% DMSO. Characterization was performed by UPLC-MS on a setup consisting of a Waters Acquity UPLC system connected to an LCT Premier XE mass spectrometer from Micromass using solvent A 0.1% TFA in H2O and solvent B 0.1% TFA in CH3CN.
We synthesized additional positional scanning array (termed solution array) of APPWT using the conventional on-resin SPPS strategy in 96-well plates. This solution array contained 268 peptides (including two wild type peptides). […] Taking advantage of the high purity of this peptide array, we generated six-point FP inhibition curve of each peptide and the obtained dose response curves enabled us to calculate the binding affinity (Ki) of each peptide variant (data not shown).

[7] = In vitro plasma stability; conditions: human, plasma
Experimental: as §3

[8] = tested on: HeLa cell line stably expressing HaloTag-GFP fusion protein; test: Chloroalkane penetration assay (CAPA); format: in vitro ADME; conditions: cell membrane permeability, CA-tagged peptides, mean ± SEM, n ≥ 3
Experimental: The HeLa cell line used for CAPA assay was generated by Chenoweth and co-workers and provided by Kritzer and co-workers. The cells stably express a HaloTag-GFP fusion protein anchored through a mitochondria targeting peptide exposed to the cytosol. For CAPA, Hela cells were seeded using DMEM supplemented with FBS in a 96-well plate one day before the experiment at a density of 4×10^4 cells/well. Just before the assay, the growth media was aspirated off and replaced with Opti-MEM assay media (100 μL/well). DMSO stocks of peptides (10 mM) were diluted in Opti-MEM to prepare serial dilutions of peptides in a separate 96-well PCR plate ensuring the final concentration of DMSO was kept consistent and below 1%. Subsequently, 25 μL of peptide solution was added into each well and the plate was incubated for 4 h at 37° C. with 5% CO2. After aspirating the assay media off, cells were washed with fresh Opti-MEM (80 μL/well) for 15 min at rt. Following removal of the washing media, cells were incubated with 5 μM CA-TAMRA in Opti-MEM (50 μL/well) for 15 min. Non CATAMRA control wells were incubated with Opti-MEM alone (50 μL/well). […] After aspiration, cells were trypsinized using clear Trypsin (20 μL/well, 10 min at 37° C.), resuspended in PBS containing 2% FBS ([…]), and analyzed using a benchtop flow cytometer (Guava EasyCyte, EMD Millipore).

[9] = purified peptides, read-out: Ki
[10] = Table 1, affinity maturation, mean ± SEM, n ≥ 3, read-out: Ki
[11] = CPP tagged peptides overview, SD1/2 binding affinity, mean ± SEM, n ≥ 3, read-out: Ki

T3 sequence (Q9UBS5 15-961 limits assumed): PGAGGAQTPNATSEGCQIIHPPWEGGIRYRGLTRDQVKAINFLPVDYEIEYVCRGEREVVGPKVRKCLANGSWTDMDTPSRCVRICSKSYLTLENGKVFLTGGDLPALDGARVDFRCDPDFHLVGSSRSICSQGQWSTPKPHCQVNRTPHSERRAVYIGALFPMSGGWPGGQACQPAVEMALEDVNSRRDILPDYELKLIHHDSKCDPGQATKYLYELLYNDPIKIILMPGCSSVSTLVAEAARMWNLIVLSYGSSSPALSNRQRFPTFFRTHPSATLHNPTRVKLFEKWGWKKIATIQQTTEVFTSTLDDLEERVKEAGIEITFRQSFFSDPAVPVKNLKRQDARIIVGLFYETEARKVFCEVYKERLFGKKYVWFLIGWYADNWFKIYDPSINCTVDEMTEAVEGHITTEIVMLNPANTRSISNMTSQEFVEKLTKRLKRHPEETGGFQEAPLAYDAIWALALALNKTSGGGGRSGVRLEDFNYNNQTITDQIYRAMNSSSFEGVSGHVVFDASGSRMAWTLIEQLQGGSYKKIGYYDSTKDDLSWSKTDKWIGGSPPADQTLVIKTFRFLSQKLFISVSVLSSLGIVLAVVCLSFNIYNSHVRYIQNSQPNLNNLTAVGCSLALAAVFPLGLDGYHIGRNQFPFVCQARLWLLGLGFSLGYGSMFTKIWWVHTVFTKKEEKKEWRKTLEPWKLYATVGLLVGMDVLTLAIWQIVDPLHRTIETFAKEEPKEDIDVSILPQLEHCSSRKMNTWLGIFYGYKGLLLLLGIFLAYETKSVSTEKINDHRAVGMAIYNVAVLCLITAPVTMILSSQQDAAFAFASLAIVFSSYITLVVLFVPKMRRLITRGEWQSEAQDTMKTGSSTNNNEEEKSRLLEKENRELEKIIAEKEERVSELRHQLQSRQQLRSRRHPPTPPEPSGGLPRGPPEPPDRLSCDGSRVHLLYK
T3 sequence (O75899 42-941 partner): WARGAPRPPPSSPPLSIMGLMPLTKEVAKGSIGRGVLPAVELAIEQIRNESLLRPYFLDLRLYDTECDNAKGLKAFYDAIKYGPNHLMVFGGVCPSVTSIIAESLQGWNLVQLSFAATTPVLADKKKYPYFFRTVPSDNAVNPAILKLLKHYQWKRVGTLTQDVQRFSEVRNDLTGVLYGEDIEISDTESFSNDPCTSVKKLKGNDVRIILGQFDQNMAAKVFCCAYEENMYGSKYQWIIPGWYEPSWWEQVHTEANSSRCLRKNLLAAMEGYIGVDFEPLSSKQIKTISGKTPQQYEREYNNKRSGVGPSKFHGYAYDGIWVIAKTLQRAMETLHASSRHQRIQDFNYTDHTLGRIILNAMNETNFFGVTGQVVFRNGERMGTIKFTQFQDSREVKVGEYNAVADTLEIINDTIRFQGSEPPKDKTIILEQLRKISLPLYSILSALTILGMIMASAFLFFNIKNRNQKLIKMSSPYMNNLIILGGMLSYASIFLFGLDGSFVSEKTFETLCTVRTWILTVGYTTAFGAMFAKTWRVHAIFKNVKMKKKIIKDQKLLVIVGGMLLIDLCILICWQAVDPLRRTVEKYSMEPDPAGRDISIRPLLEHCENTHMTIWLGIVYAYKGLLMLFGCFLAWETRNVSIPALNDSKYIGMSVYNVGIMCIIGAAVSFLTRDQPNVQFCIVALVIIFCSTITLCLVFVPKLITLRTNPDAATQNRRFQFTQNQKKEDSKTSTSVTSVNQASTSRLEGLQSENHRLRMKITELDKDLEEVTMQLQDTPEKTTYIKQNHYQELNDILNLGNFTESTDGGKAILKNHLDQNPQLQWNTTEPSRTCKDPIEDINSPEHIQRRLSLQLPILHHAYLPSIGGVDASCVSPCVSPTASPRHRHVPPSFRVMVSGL
T2 sequence (Q9UBS5 15-961 limits assumed): as the sequence (Q9UBS5 15-961 limits assumed) above
T2 sequence (O75899 42-941 partner): as the sequence (O75899 42-941 partner) above
T1 sequence (Q9WV18 20-960): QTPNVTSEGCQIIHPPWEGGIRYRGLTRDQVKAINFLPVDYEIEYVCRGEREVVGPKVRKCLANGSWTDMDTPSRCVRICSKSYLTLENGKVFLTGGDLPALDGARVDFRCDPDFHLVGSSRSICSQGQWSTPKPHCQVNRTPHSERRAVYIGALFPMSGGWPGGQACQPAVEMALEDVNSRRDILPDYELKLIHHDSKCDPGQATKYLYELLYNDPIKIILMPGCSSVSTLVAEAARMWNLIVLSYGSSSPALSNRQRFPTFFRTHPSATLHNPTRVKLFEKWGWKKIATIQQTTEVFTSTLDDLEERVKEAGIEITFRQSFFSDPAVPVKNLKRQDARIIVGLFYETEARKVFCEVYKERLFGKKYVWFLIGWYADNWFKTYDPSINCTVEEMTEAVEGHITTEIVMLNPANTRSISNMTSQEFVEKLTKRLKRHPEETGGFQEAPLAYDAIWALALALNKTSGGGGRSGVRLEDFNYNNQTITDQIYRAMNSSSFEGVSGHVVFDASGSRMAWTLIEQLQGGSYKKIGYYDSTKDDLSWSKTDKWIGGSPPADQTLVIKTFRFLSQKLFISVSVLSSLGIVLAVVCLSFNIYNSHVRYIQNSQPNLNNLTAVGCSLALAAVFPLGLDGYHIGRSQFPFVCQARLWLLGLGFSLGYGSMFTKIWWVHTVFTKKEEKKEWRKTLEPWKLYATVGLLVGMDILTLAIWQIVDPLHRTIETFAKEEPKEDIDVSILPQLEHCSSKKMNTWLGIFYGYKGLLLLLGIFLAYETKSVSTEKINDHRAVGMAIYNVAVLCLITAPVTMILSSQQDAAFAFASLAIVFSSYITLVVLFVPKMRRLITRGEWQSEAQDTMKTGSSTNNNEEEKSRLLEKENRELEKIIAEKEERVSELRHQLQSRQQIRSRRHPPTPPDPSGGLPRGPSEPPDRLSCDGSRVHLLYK

Row | Molecule | pull-down of native GB1a [1] | basal activity of GB1a/2Rs [3] | Emax values of GABA-activated GB1a/2Rs [4] | Ki [2, 9] [nM] | half-life [5] [h] | Ki [2, 10] [nM] | Ki [2, 11] [nM] | also measured
1 | CC[C@H](C)[C@H](NC(=O)[C@H](CC(=O)O)NC(=O)[C@H](CC(=O)O)NC(=O)[C@H](Cc1ccc(O)cc1)NC(=O)[C@H](CC(=O)O)NC(=O)[C@H](CC(=O)O)NC(=O)[C@H](CO)NC(=O)[C@H](CC(=O)O)NC(=O)[C@H](CCC(=O)O)NC(=O)[C@H](Cc1ccc2ccccc2c1)NC(C)=O)C(=O)N[C@@H](CC(=O)O)C(=O)N[C@@H](CC(=O)O)C(=O)N[C@@H](CC(=O)O)C(=O)N[C@@H](Cc1c[nH]c2ccccc12)C(N)=O [Scr-20, reference compound] (Ac-[2Nal]EDSDDYDDIDDDW-NH2) | did not interact with the GB1a subunit | significant decreased basal activity | did not affect the Emax values |  |  |  |  | Ki ([2]; Table 16, ncAAs incorporated peptides, read-out: Ki (nM) mean ± SEM): 31200 ± 989 nM
2 | CC[C@H](C)[C@H](NC(=O)[C@H](Cc1ccccc1)NC(=O)[C@H](CCC(=O)O)NC(=O)[C@@H](NC(=O)[C@H](CCC(=O)O)NC(C)=O)[C@@H](C)O)C(=O)N[C@@H](C)C(=O)N[C@@H](Cc1c[nH]c2ccccc12)C(=O)NCC(=O)N1CCC[C@H]1C(=O)N[C@H](C(=O)NCC(=O)N[C@@H](CC(=O)O)C(=O)N[C@@H](CCC(=O)O)C(=O)N[C@@H](CC(=O)O)C(N)=O)[C@@H](C)O [AJAP-1WT, Ac-ETEFIAWGPTGDED-NH2] (Ac-ETEFIAWGPTGDED-NH2) | ability to bind and enrich full-length GB1a subunit | elevated basal activity | did not affect the Emax values | 31 ± 1 | > 48 |  |  | 
3 | CC(=O)N[C@@H](CCC(=O)O)C(=O)N[C@@H](CC(=O)O)C(=O)N[C@@H](CC(=O)O)C(=O)N[C@@H](CO)C(=O)N[C@@H](CC(=O)O)C(=O)N[C@H](C(=O)N[C@@H](Cc1c[nH]c2ccccc12)C(=O)N[C@@H](Cc1c[nH]c2ccccc12)C(=O)NCC(=O)NCC(=O)N[C@@H](C)C(=O)N[C@@H](CC(=O)O)C(=O)N[C@H](C(=O)N[C@@H](CC(=O)O)C(N)=O)[C@@H](C)O)C(C)C [APPWT] (Ac-EDDSDVWWGGADTD-NH2) |  |  |  | 557 ± 9 |  | 557 ± 9 |  | Ki [6]: 635 nM; half-life [7]: > 48 h
4 | DDDWIDWYDSDDDYGRKKRRQRRR [Peptide 16-Tat] |  |  |  |  |  |  | 71 ± 1 | Ki ([2]; Table 14, CPPs tagged peptides, read-out: Ki (nM) mean ± SEM): 70.5 ± 0.3 nM; CP50 [8]: 19 ± 0.4 µM
5 | CC[C@H](C)[C@H](NC(=O)[C@H](Cc1c[nH]c2ccccc12)NC(=O)[C@H](CC(=O)O)NC(=O)[C@H](CC(=O)O)NC(=O)[C@H](CC(=O)O)NC(=O)[C@H](CCC(=O)O)NC(C)=O)C(=O)N[C@@H](CC(=O)O)C(=O)N[C@@H](Cc1c[nH]c2ccccc12)C(=O)N[C@@H](Cc1ccc(O)cc1)C(=O)N[C@@H](CC(=O)O)C(=O)N[C@@H](CO)C(=O)N[C@@H](CC(=O)O)C(=O)N[C@@H](CC(=O)O)C(=O)N[C@@H](CC(=O)O)C(N)=O [Peptide 16] (Ac-EDDDWIDWYDSDDD-NH2) |  | elevated basal activity | did not affect the Emax values |  | > 48 | 3.2 ± 0.2 | 3.2 ± 0.2 | Ki ([2]; Table 13, peptides for affinity maturation, read-out: Ki (nM) mean ± SEM): 3.2 ± 0.2 nM; reduction of negative allosteric modulation effects of AJAP-1 at GB1a/2Rs in trans [3]: to a greater extent than AJAP-1WT peptide
